How the values were obtained:
[1] = system: Granta-519 lymphoma tumor spheroids; experiment: Concentration levels: tumor cell number during re-challenge, concurrent or rescue treatment; type: cell-based
Protocol: Different concentrations of Compound C were tested for their effects on cytolytic function of CAR T cells following chronic stimulation. CAR T cells were treated with various concentrations of Compound C either during or after chronic stimulation.
Anti-CD19 CAR-expressing T cells, produced as described in Example 1, were chronically stimulated as described in Example 3 (with Compound C present during chronic stimulation), then re-challenged with Granta-519 lymphoma tumor spheroids in the absence of Compound C (concurrent treatment group). In addition, anti-CD19 CAR-expressing T cells were chronically stimulated as described in Example 4 (with Compound C absent during chronic stimulation), then re-challenged with Granta-519 lymphoma tumor spheroids in the presence of Compound C (rescue treatment group). During re-challenge, cytolytic activity was assessed by tumor cell number at various times during co-culture with CAR-T cells.
In both treatment conditions, tumor cell number was reduced compared to control conditions for CAR T cells treated with Compound C at a 0.001 μM concentration. Also in both treatment groups, tumor cell number was higher compared to control conditions for CAR T cells treated with Compound C at 0.01 μM and 0.1 μM concentrations.

[2] = system: Granta-519 lymphoma tumor spheroids or A549 tumor spheroids; experiment: Chronic stimulation with rescue treatment during re-challenge with tumor spheroids; type: cell-based
Protocol: Anti-CD19 CAR-expressing T cells, produced as described in Example 1, were chronically stimulated as described in Example 3, but in the absence of Compound C during stimulation. Instead, chronically stimulated CAR T cells were treated with Compound C during re-challenge with Granta-519 lymphoma tumor spheroids or A549 tumor spheroids, after which cytolytic activity, cytokine production, and gene expression of the CAR T Cells was assessed.
FIGS. 4B and 4C show the volume of tumor spheroids co-cultured with anti-CD19 CAR T cells in the presence of Compound C.

[3] = system: CAR-expressing CD8 T cells; experiment: T cell memory markers CD27/CCR7 after chronic stimulation (flow cytometry); type: cell-based, human
Protocol: Similar results are shown in FIG. 7B for a separate experiment in which CAR T cells were chronically stimulated for 7 days in the presence or absence of Compound C. In this experiment, Compound C was present at (i) 50 nM for one day and 1 nM for the remaining six days of stimulation, (ii) 25 nM for one day and 0.5 nM for the remaining six days of stimulation, (iii) 10 nM for all seven days of stimulation, or (iv) 1 nM for all seven days of stimulation. Stimulated CAR T cells were then re-challenged with Raji lymphoma tumor spheroids in the absence of Compound C, after which cytolytic activity was assessed over a four-day period. […] The CAR T cells stimulated for seven days in the presence or absence of Compound C were also analyzed for phenotypic T cell memory markers using flow cytometry following chronic stimulation. […] CD27/CCR7 expression, which is a marker for less differentiated, naïve-like T cells, was highest in CAR-expressing CD8 T cells stimulated in the presence of Compound C at 50 nM for one day and 1 nM for the remaining six days of stimulation (* P<0.05).

[4] = system: anti-CD19 CAR T cells; experiment: Proliferation (cell doublings) of stimulated anti-CD19 CAR T cells, IncuCyte; type: cell-based, human
Protocol: (§1) Anti-CD19 CAR-expressing T cell compositions were generated from three different healthy donors as described in Example 1. Prior to use, cryopreserved CD4+ and CD8+ engineered cell compositions were thawed and combined at approximately a 1:1 CD4:CD8 ratio.
(§2) Following incubation, stimulated CAR T cells were harvested, washed twice in media, and assessed.
Proliferation of T cells during culture with the plate-bound anti-idiotypic antibody was monitored for seven days using an IncuCyte® Live Cell Analysis System (Essen BioScience Inc.), and the number of cell doublings of cells stimulated with 30 μg/mL of anti-idiotypic antibody is shown in FIG. 2B and FIG. 2C for the three donors (mean±SEM).

[5] = system: chronically stimulated anti-CD19 CAR T cells; experiment: RNA-seq gene expression of chronically stimulated CAR T cells; type: cell-based, human
Protocol: Five days after re-challenge, CAR T cells were sorted from tumor spheroids, and gene expression was analyzed by RNA sequencing (RNA-seq). Libraries for RNA-seq were sequenced, and reads were mapped to the Genome Reference Consortium Human Build 38 (GRCh38) human reference genome. Gene expression levels were quantified, and differential expression was performed using DESeq2. Gene expression was compared between chronically stimulated CAR T cells treated with Compound C during stimulation and untreated chronically stimulated CAR T cells, as well as between untreated chronically stimulated CAR T cells and non-stimulated CAR T cells. Differential expression was calculated based on treatment effects with 1 nM and 10 nM of the compounds. Differential locus selection cut offs were q≤0.05 and absolute log2 fold change ≥0.5.
Pathway analysis of CAR T RNA-seq data using the Kyoto Encyclopedia of Genes and Genomes (KEGG) was also performed using clusterProfiler. Pathways whose upregulation by chronic stimulation was prevented or reduced by treatment with Compound C are shown in FIG. 3J and include specific cell proliferation pathways. Gene ratios as shown in FIG. 3J were calculated as the percentage of significant genes over total genes in a given pathway.
Gene expression of chronically stimulated CAR T cells was also analyzed by RNA sequencing as in Example 3. […]

[6] = system: anti-CD19 CAR T cells; experiment: Viability of anti-CD19 CAR T cells stimulated with anti-idiotypic antibody (live/dead dye); type: cell-based, human; conditions: Day 3 of culture; 3 or 30 μg/mL anti-idiotypic antibody; three donors
Protocol: as §1, §2
Viability was assessed at Day 3 of culture by flow cytometry using a live/dead cell dye. As shown in FIG. 2A for the three donors (mean±SEM), the compounds had no effect on cell viability when stimulation was carried out either with 3 μg/mL of anti-idiotypic antibody (left panel) or with 30 μg/mL of anti-idiotypic antibody (right panel).

O=C1CC[C@H](N2C(=O)c3cccc(NCc4ccc(CN5CC(N6CCOCC6)C5)cc4F)c3C2=O)C(=O)N1 [Compound C, (S)-2-(2,6-dioxopiperidin-3-yl)-4-((2-fluoro-4-((3-morpholinoazetidin-1-yl)methyl)benzyl)amino)isoindoline-1,3-dione]
tumor cell number compared to control conditions ([1]; concurrent treatment, 0.001 μM): reduced
tumor cell number compared to control conditions ([1]; concurrent treatment, 0.01 μM): higher
tumor cell number compared to control conditions ([1]; concurrent treatment, 0.1 μM): higher
tumor cell number compared to control conditions ([1]; rescue treatment, 0.001 μM): reduced
tumor cell number compared to control conditions ([1]; rescue treatment, 0.01 μM): higher
tumor cell number compared to control conditions ([1]; rescue treatment, 0.1 μM): higher
tumor volume vs chronically stimulated CAR T cells alone or compound alone ([2]; 1 nM during re-challenge (rescue) with CAR T cells, P<0.0001): more reduced
IFNγ cytokine production five days after re-challenge ([2]; 1 nM during re-challenge (rescue), P<0.0001): highest
tumor volume vs chronically stimulated CAR T cells alone or compound alone ([2]; 10 nM during re-challenge (rescue) with CAR T cells, P<0.0001): more reduced
IFNγ cytokine production five days after re-challenge ([2]; 10 nM during re-challenge (rescue), P<0.05): increased
CD27/CCR7 expression ([3]; 50 nM for one day and 1 nM for the remaining six days of stimulation, P<0.05): highest
percentage of CD27+/CCR7+ cells vs stimulation in the absence of compound ([3]; seven days of chronic stimulation in the presence of compound): higher percentages of CD27+/CCR7+ cells
CAR T cell proliferation ([4]; 1 nM, P<0.001): decreased
CAR T cell proliferation ([4]; 10 nM, P<0.0001): further decreased
decrease of cell doublings compared with the other compounds ([4]; at all doses tested): greatest decrease of doublings
gene expression vs untreated chronically stimulated CAR T cells (RNA-seq) ([5]; treatment during chronic stimulation (concurrent), 1 nM and 10 nM): altered gene expression
gene expression vs untreated chronically stimulated CAR T cells (RNA-seq) ([5]; treatment during re-challenge (rescue)): altered gene expression
cell viability (percentage of live CAR T cells) [6]: without affecting CAR T cell viability

— patent publication US20240197871A1, “COMBINATION OF A CAR T CELL THERAPY AND AN IMMUNOMODULATORY COMPOUND FOR TREATMENT OF LYMPHOMA” (Juno Therapeutics, Inc., priority 2021, published 2024)
